Consider 18 compounds from patent US6858638B2, “Substituted indazoles, compositions containing them, method of production and use” (Aventis Pharma S.A., priority 2002, dated 2005).

Common to all, as to assay type: biochemical
One test concerns the target T1, Aurora2 kinase (Homo sapiens, UniProt O14965).
T1 construct: A complete recombinant Aurora2 enzyme; His tag (N); made in house; host or cells: E. coli
T1 sequence (O14965 1-403): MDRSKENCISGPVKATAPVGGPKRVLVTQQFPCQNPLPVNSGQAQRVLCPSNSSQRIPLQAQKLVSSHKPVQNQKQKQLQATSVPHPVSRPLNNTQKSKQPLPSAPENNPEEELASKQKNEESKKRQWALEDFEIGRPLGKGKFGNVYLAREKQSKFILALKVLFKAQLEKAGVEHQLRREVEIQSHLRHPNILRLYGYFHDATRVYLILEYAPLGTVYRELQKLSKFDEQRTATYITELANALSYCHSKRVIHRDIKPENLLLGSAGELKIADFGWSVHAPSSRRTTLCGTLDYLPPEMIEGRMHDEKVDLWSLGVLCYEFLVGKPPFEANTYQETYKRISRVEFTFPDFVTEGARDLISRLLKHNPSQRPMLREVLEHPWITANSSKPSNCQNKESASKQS
Kind of test: Aurora2 kinase radioactivity scintillation assay using nickel chelate (NuMA substrate). The conditions noted are these: 10 μM; for inhibition at 10 µM: read-out: Aurora2 % inhib at 10 μM. An outline of the steps: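 Read-out is 33P incorporation into His-NuMA (Q1687-H2101, 0.5 μM) captured on nickel chelate, after 30 min at 37 °C with 0.02 μM His-Aurora2 and 1 μM ATP. Expressed as percentage inhibition of uncompounded control activity, background subtracted.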

In another test the target is T2, human KDR enzyme (Homo sapiens, UniProt P35968).
T2 construct: The cytoplasmic domain of the human KDR enzyme; GST; made in house; host or cells: SF21 insect cells (baculovirus)
Kind of test: KDR substrate (PLCγ) phosphorylation, scintillation assay. The settings on record: 10 μM; for inhibition at 10 µM: read-out: KDR % inhib at 10 μM. An outline of the steps:
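Values are percent inhibition relative to the compound-free control, read by scintillation counting of 33P incorporation after EDTA stop. Baculovirus/SF21-expressed GST-KDR cytoplasmic domain (100 ng) acted for 1 h at 37 °C in pH 7.2 MOPS kinase buffer. The substrate was GST-PLCγ SH2-SH3 (2 μg), added with γ33P-ATP and 2 μM unlabeled ATP.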

Another test deals with T3, human FAK (Homo sapiens, UniProt Q05397).
T3 construct: The complete cDNA of human FAK; made in house; host or cells: baculovirus expression system (vector pFastBac HTc)
As to the kind of experiment: FAK autophosphorylation inhibition, time resolved fluorescence (HTRF) assay. The conditions noted are these: 10 μM (values without asterisk); for inhibition at 10 µM: read-out: FAK % inhib at 10 μM. The method, boiled down:
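Autophosphorylation was detected by europium-cryptate anti-pTyr and XL665 anti-His energy transfer, percent inhibition from the 665/620 ratio relative to no-compound wells. Enzyme: His-FAK full length, 6.6 µg/ml, incubated 1 h at 37 °C, pH 7.2, 15 µM ATP.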
In general terms: TR-FRET usually uses a lanthanide donor and a delayed reading to cut background.

Test [1] has as its target T4, human IGF1R cytoplasmic domain (Homo sapiens, UniProt P08069).
T4 construct: The human IGF1R cytoplasmic domain was cloned; made in house; host or cells: SF21 insect cells (baculovirus)
As to the kind of experiment: IGF1R autophosphorylation inhibition, time resolved fluorescence (HTRF) assay. The conditions noted are these: 10 μM; for inhibition at 10 µM: read-out: IGF1R % inhib at 10 μM. The method, boiled down: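 GST-tagged human IGF1R cytoplasmic domain from SF21 cells incubated with compound in 50 mM Hepes pH 7.5, 5 mM MnCl2, 50 mM NaCl, […] ATP. Autophosphorylation detected by HTRF (Eu-K anti-phosphotyrosine, XL665 anti-GST) after EDTA/KF stop; percentage inhibition versus no-compound control.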

T3 sequence (Q05397 whole entry): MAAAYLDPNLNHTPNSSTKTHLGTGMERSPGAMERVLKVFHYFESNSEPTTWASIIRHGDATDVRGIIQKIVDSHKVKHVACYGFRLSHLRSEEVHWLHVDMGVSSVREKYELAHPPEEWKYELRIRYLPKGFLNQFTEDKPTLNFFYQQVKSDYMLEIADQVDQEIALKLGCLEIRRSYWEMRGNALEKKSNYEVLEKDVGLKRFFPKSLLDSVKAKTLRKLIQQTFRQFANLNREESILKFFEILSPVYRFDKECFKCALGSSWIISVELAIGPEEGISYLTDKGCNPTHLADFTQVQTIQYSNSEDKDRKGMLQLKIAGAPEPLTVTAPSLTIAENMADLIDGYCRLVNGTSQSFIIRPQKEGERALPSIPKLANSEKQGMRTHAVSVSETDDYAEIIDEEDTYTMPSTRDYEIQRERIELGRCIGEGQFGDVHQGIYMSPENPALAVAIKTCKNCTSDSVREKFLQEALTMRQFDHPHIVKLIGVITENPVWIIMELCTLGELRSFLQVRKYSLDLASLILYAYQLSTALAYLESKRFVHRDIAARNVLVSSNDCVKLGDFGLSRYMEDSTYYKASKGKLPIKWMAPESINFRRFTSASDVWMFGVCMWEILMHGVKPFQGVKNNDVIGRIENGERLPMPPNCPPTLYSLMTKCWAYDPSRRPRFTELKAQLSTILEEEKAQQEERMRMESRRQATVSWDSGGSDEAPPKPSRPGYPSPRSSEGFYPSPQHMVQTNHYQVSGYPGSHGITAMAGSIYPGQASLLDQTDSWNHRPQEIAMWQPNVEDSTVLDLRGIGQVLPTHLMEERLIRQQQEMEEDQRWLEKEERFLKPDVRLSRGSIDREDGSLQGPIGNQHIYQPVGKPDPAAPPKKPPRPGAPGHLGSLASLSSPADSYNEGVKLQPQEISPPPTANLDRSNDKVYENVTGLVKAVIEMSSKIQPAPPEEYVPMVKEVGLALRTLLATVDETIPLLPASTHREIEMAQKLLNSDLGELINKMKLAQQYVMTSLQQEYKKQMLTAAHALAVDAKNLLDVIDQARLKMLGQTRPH
T4 sequence (P08069 960-1367 limits assumed): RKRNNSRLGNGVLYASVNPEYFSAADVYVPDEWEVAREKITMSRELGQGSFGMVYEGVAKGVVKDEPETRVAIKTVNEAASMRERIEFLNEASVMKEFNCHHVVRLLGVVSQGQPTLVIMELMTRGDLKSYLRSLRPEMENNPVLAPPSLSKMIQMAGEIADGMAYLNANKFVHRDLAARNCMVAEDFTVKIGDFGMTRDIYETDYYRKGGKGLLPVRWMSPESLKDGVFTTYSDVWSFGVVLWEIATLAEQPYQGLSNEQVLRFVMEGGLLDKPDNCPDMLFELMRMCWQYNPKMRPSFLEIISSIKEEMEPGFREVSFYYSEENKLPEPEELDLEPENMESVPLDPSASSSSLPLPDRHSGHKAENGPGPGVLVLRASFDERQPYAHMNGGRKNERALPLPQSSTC
T2 sequence (P35968 786-1356 limits assumed): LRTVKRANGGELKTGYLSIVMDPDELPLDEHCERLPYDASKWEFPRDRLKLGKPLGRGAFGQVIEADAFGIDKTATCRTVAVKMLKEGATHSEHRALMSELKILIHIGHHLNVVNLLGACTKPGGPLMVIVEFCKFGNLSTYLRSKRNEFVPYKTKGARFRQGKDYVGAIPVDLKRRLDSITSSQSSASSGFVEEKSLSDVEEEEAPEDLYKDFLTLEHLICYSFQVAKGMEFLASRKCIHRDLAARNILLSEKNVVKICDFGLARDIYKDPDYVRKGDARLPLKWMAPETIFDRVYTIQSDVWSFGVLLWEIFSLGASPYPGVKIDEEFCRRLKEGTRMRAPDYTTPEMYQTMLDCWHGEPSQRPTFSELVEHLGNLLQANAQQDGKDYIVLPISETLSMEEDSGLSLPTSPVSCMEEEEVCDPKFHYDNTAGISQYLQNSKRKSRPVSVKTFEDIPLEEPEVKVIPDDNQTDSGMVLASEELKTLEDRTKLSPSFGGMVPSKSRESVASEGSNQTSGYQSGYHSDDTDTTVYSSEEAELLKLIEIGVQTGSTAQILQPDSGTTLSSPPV

Turning to `O=S(=O)(Nc1ccc2[nH]nc(-c3ccccc3)c2c1)c1cccc2nonc12` [Example 149, N-(3-Phenyl-1H-indazol-5-yl)-benzo[1,2,5]oxadiazole-4-sulfonamide], the inhibition at 10 µM on Aurora2 kinase came to 100%; on human KDR enzyme it was 57%; on human FAK it was 78%; in test [1], 67%.
The matching figures for `CCCCS(=O)(=O)Nc1ccc2[nH]nc(-c3ccccc3)c2c1` [Example 129, N-(3-Phenyl-1H-indazol-5-yl)-butanesulfonamide]: 64%, 58%, 46% and 30%.
The matching figures for `O=C(Nc1n[nH]c2ccc(NS(=O)(=O)c3cc(F)cc(F)c3)cc12)c1ccccc1` [Example 46, N-[5-(3,5-Difluorobenzenesulfonylamino)-1H-indazol-3-yl]benzamide]: 95%, 82%, 90% and 82%.
The corresponding values for `Cc1ccc(-c2n[nH]c3ccc(NS(=O)(=O)c4ccccc4S(C)(=O)=O)cc23)cc1` [Example 164, 2-Methanesulfonyl-N-(3-p-tolyl-1H-indazol-5-yl)-benzenesulfonamide] are 91%, 71%, 90% and 66%.
`CN(C)c1cccc2c(S(=O)(=O)Nc3ccc4[nH]nc(-c5ccccc5)c4c3)cccc12` [Example 107, 5-Dimethylamino-N-(3-phenyl-1H-indazol-5-yl)naphthalene-1-sulfonamide]: the inhibition at 10 µM turned out to be 43% at Aurora2 kinase, 51% at human KDR enzyme, 10% on human FAK and 84% in test [1].
The corresponding values for `Cc1cc(C)cc(-c2n[nH]c3ccc(NS(=O)(=O)c4ccccc4S(C)(=O)=O)cc23)c1` [Example 179, 2-Methanesulfonyl-N-[3-(3,5-dimethylphenyl)-1H-indazol-5-yl]benzenesulfonamide] are 93%, 49%, 96% and 72%.
The corresponding values for `O=[N+]([O-])c1ccc(S(=O)(=O)Nc2ccc3[nH]nc(-c4ccccc4)c3c2)cc1` [Example 119, 4-Nitro-N-(3-phenyl-1H-indazol-5-yl)benzenesulfonamide] are 50%, 78%, 25% and 50%.
As to `CS(=O)(=O)c1ccccc1S(=O)(=O)Nc1ccc2[nH]nc(-c3ccc(O)cc3)c2c1` [Example 35, N-[3-(4-Hydroxyphenyl)-1H-indazol-5-yl]-2-methylsulfonylbenzenesulfonamide], the “Aurora2 % inhib at 10 μM” value on Aurora2 kinase worked out at 94%. Also, the “KDR % inhib at 10 μM” value on human KDR enzyme turned out to be 80%. Also, the “FAK % inhib at 10 μM” value on human FAK is 97%. The “IGF1R % inhib at 10 μM” value in test [1] is 94%.
Consider `CC1(C)[C@H]2CCC1(CS(=O)(=O)Nc1ccc3[nH]nc(-c4ccccc4)c3c1)C(=O)C2` [Example 148, C-(7,7-Dimethyl-2-oxo-bicyclo[2.2.1]hept-1-yl)-N-(3-phenyl-1H-indazol-5-yl)-methanesulfonamide], for which the inhibition at 10 µM on Aurora2 kinase worked out at 77%; on human KDR enzyme, 61%; on human FAK, 36%; in test [1] it was 30%.
Take `CS(=O)(=O)c1ccccc1S(=O)(=O)Nc1ccc2[nH]nc(-c3ccc(C(F)(F)F)cc3)c2c1` [Example 176, N-[3-(4-Trifluoromethylphenyl)-1H-indazol-5-yl]-2-methanesulfonyl-benzenesulfonamide]: the inhibition at 10 µM was 88% on Aurora2 kinase, 70% at human KDR enzyme, 66% on human FAK and 83% in test [1].
Consider `COc1ccccc1-c1n[nH]c2ccc(NS(=O)(=O)c3ccccc3S(C)(=O)=O)cc12` [Example 183, 2-Methanesulfonyl-N-[3-(2-methoxyphenyl)-1H-indazol-5-yl]benzenesulfonamide], for which the inhibition at 10 µM at Aurora2 kinase turned out to be 90%; on human KDR enzyme, 37%; at human FAK, 82%; in test [1], 50%.
The matching figures for `CSc1ccccc1-c1n[nH]c2ccc(NS(=O)(=O)c3ccccc3S(C)(=O)=O)cc12` [Example 103, 2-methylsulfonyl-N-[3-(2-methylsulfanylphenyl)-1H-indazol-5-yl]benzenesulfonamide]: 40%, 25%, 61% and 19%.
On to `CS(=O)(=O)c1ccccc1S(=O)(=O)Nc1ccc2[nH]nc(Nc3ccccc3)c2c1` [Example 83, 2-Methylsulfonyl-N-(3-phenylamino-1H-indazol-5-yl)-benzenesulfonamide], for which the inhibition at 10 µM on Aurora2 kinase came to 93%; on human KDR enzyme, 60%; on human FAK it was 92%; in test [1], 100%.
The matching figures for `O=S(=O)(Nc1ccc2[nH]nc(-c3ccccc3)c2c1)c1cccc2cccnc12` [Example 111, N-(3-Phenyl-1H-indazol-5-yl)quinoline-8-sulfonamide]: 100%, 83%, 66% and 99%.
The corresponding values for `COc1cccc(-c2n[nH]c3ccc(NS(=O)(=O)c4ccccc4S(C)(=O)=O)cc23)c1` [Example 178, 2-Methanesulfonyl-N-[3-(3-methoxyphenyl)-1H-indazol-5-yl]benzenesulfonamide] are 90%, 44%, 95% and 67%.
`Cc1ccc(-c2n[nH]c3ccc(NS(=O)(=O)c4ccccc4S(C)(=O)=O)cc23)cc1C` [Example 195, 2-Methanesulfonyl-N-[3-(3,4-dimethylphenyl)-1H-indazol-5-yl]benzenesulfonamide]: the inhibition at 10 µM at Aurora2 kinase is 91%; at human KDR enzyme, 47%; at human FAK it was 91%; in test [1], 75%.
Consider `CS(=O)(=O)c1ccccc1S(=O)(=O)Nc1ccc2[nH]nc(-c3cc(Cl)cc(Cl)c3)c2c1` [Example 168, N-[3-(3,5-Dichlorophenyl)-1H-indazol-5-yl]-2-methanesulfonyl-benzenesulfonamide], for which the inhibition at 10 µM came to 87% at Aurora2 kinase, 49% at human KDR enzyme, 95% at human FAK and 50% in test [1].
The corresponding values for `CS(=O)(=O)c1ccccc1S(=O)(=O)Nc1ccc2[nH]nc(-c3cccc(OCc4ccccc4)c3)c2c1` [Example 223, N-[3-(3-Benzyloxyphenyl)-1H-indazol-5-yl]-2-methanesulfonyl-benzenesulfonamide] are 31%, 23%, 70% and 0%.
